{"source": "patent US20080145858A1", "about": "“DETECTION AND IDENTIFICATION OF TOXICANTS BY MEASUREMENT OF GENE […]” (priority 2003, published 2008)", "system": "Xenopus laevis neurulation stage embryos (stage 15)", "assay": "Xenopus cDNA microarray, differential gene expression after PMA treatment during neurulation (Group II)", "type": "in vivo", "conditions": "for Ratio of Medians (Cy5/Cy3) Mean / Ratio of Medians (Cy5/Cy3) Second Spot / Cy3/Cy5 by Landmarks (0.25) / Cy3/Cy5 by all Data Points (0.469) / Normalized by Landmarks (0.25) / Normalized by all Data Points (0.469) / Ratio of Medians (Cy5/Cy3) First Spot: PMA, stage 15; for % increase of mRNA expression by Microarray analysis (NF by all data point): Stage 15", "source_text": "Specifically, the method and screen of the present invention function as follows. EST clones produced from Xenopus laevis unfertilized eggs were used in the present study with ˜1,200 EST clones from a 18,500 EST clone set selected for production of a Xenopus cDNA microarray. The Xenopus microarray was used to measure the effect of chemical treatment on Xenopus embryo gene regulation. The chemical treatment was a phorbol ester, PMA. Xenopus eggs were obtained from females induced for ovulation and fertilized in vitro. Control Xenopus laevis embryos were allowed to develop to stage 8 blastula or stage 15 neurula. Treated embryos were exposed to PMA during cleavage stage or during neurulation with end points of blastula (stage 8) or neurula (stage 15). Specifically, PMA 100 ng/ml was added to the incubation media during cleavage stages for evaluation in stage 8 embryo or PMA was added during neural induction for evaluation in stage 15 embryos. RNA extracted from the embryos was used to generate fluorescent cDNA probes for Xenopus microarray analyses to measure differential gene expression with and without the phorbol ester treatment. Analysis was performed using paired RNA samples to compare PMA-treated and untreated embryos: Group I measured the effects of PMA-treatment during the cleavage stage in stage 8 embryos and Group II measured the effects of PMA-treatment during neurulation in stage 15 embryos. Group III measured the change in gene expression between stage 8 and stage 15 embryos.\ncDNA fragments were obtained by PCR replication of Xenopus laevis unfertilized egg cDNA inserts, purified, quantitated and loaded onto glass chips by robotics. In addition to the selected ˜1,200 genes, 64 lambda Q gene, an internal control cDNA (Genomic Solutions, Inc., Ann Arbor, Mich.) was loaded on the chip. The insert DNA from ˜1,200 clones were PCR amplified using forward and reverse primers (GF.200 primers, Research Genetics, Huntsville, Ala.). A second PCR was carried out using 1 μl of the primary PCR (20 μl) for template. Excess dNTPs, polymerase and other PCR artifacts were removed from the secondary PCR reactions using Millipore Multiscreen plates (Millipore Corporation, Bedford, Mass.) using the standard protocol. The purity of the PCR products was assessed by electrophoresis and documented using an Alphalmager 1000 Digital Imaging System (Alpha Innotech Corporation, San Leandro, Calif.). The DNA obtained by PCR was quantitated using PicoGreen (Molecular Probes, Eugene, Oreg.). The DNA was denatured and arrayed onto amino-silane coated microscope slides (CMT-GAPS coated slides, Corning, Corning, N.Y.) using a Flexys robotic workstation (Genomic Solutions Inc.). The ˜1,200 PCR products were arrayed in duplicate on each slide and cross-linked. Each gene chip contained duplicate cDNA samples.\nTotal RNA was prepared from embryos treated in three separate dishes per treatment group that were pooled. Total RNA was isolated from the frog embryos (1,200 embryos for each probe production) using TRIzol extraction (Gibco BRL, Grand Island, N.Y.) and Qiagen RNeasy kits (Qiagen, Valencia, Calif.). The ethanol precipitated RNA was resuspended in RNase-free water, quantitated with RiboGreen (Molecular Probes, Eugene, Oreg.). Total RNA was further purified using oligoTex mRNA maxi kit (Qiagen Co.) with the bound mRNA eluted with minimum volume of elution buffer and precipitated with ethanol. The recovery rate of mRNA by the ethanol precipitation method was ˜70%. Cy3- or Cy5-tagged probes were produced from an mRNA mixture (20 μl) of Xenopus mRNA (5 μg) and lambda Q gene mRNA (3.5 ng) reverse-transcribed with oligo(dT)18-22 primer and dNTPs and the reverse-transcribed cDNA was cross-linked with Cy3 or Cy5 as described in Clontech Atlas™ Glass Fluorescent Labeling kit manual (www.clontech.com). After hydrolysis of the RNA and purification of the probe (Centricon 50, Millipore, Bedford, Mass.), the cDNA in TE buffer was quantitated by absorbance at 260 nm. […]", "note": "Marks after values point to notes of the source that are not given here."}
{"smiles": "CCCCCCCCCCCCCC(=O)O[C@@H]1[C@@H](C)[C@@]2(O)[C@@H](C=C(CO)C[C@]3(O)C(=O)C(C)=C[C@@H]23)[C@@H]2C(C)(C)[C@]12OC(C)=O", "note": "[PMA, phorbol 12-myristate 12-acetate]", "values": [{"measurement": "Ratio of Medians (Cy5/Cy3) Mean", "setting": "PBX0139G06 mRNA", "value": "1.06 ± 0.00 ^a"}, {"measurement": "Ratio of Medians (Cy5/Cy3) Second Spot", "setting": "PBX0139G06 mRNA", "value": 1.06}, {"measurement": "Cy3/Cy5 by Landmarks (0.25)", "setting": "PBX0140A10 mRNA", "value": 4.20}, {"measurement": "Cy3/Cy5 by all Data Points (0.469)", "setting": "PBX0140A10 mRNA", "value": 2.24}, {"measurement": "Normalized by Landmarks (0.25)", "setting": "PBX0140A10 mRNA", "value": 0.238}, {"measurement": "Normalized by all Data Points (0.469)", "setting": "PBX0140A10 mRNA", "value": 0.446}, {"measurement": "Ratio of Medians (Cy5/Cy3) First Spot", "setting": "PBX0140A10 mRNA", "value": 0.89}, {"measurement": "Ratio of Medians (Cy5/Cy3) Mean", "setting": "PBX0140A10 mRNA", "value": "0.95 ± 0.06 ^a"}, {"measurement": "Ratio of Medians (Cy5/Cy3) Second Spot", "setting": "PBX0140A10 mRNA", "value": 1.00}, {"measurement": "Cy3/Cy5 by Landmarks (0.25)", "setting": "PBX0141B10 mRNA", "value": 3.92}, {"measurement": "Cy3/Cy5 by all Data Points (0.469)", "setting": "PBX0141B10 mRNA", "value": 2.09}, {"measurement": "Normalized by Landmarks (0.25)", "setting": "PBX0141B10 mRNA", "value": 0.255}, {"measurement": "Normalized by all Data Points (0.469)", "setting": "PBX0141B10 mRNA", "value": 0.478}, {"measurement": "Ratio of Medians (Cy5/Cy3) First Spot", "setting": "PBX0141B10 mRNA", "value": 0.92}, {"measurement": "Ratio of Medians (Cy5/Cy3) Mean", "setting": "PBX0141B10 mRNA", "value": "1.02 ± 0.10 ^a"}, {"measurement": "Ratio of Medians (Cy5/Cy3) Second Spot", "setting": "PBX0141B10 mRNA", "value": 1.12}, {"measurement": "Cy3/Cy5 by Landmarks (0.25)", "setting": "PBX0141H05 mRNA", "value": 10.8}, {"measurement": "Cy3/Cy5 by all Data Points (0.469)", "setting": "PBX0141H05 mRNA", "value": 5.76}, {"measurement": "Normalized by Landmarks (0.25)", "setting": "PBX0141H05 mRNA", "value": 0.093}, {"measurement": "Normalized by all Data Points (0.469)", "setting": "PBX0141H05 mRNA", "value": 0.174}, {"measurement": "Ratio of Medians (Cy5/Cy3) First Spot", "setting": "PBX0141H05 mRNA", "value": 0.73}, {"measurement": "Ratio of Medians (Cy5/Cy3) Mean", "setting": "PBX0141H05 mRNA", "value": "0.37 ± 0.36 ^a"}, {"measurement": "Ratio of Medians (Cy5/Cy3) Second Spot", "setting": "PBX0141H05 mRNA", "value": 0.015}, {"measurement": "Normalized by Landmarks (0.25)", "setting": "PBX 0141H12 mRNA", "value": 1.40}, {"measurement": "Normalized by all Data Points (0.469)", "setting": "PBX 0141H12 mRNA", "value": 2.63}, {"measurement": "Ratio of Medians (Cy5/Cy3) First Spot", "setting": "PBX 0141H12 mRNA", "value": 7.46}, {"measurement": "Ratio of Medians (Cy5/Cy3) Mean", "setting": "PBX 0141H12 mRNA", "value": "5.61 ± 1.85 ^a"}, {"measurement": "Ratio of Medians (Cy5/Cy3) Second Spot", "setting": "PBX 0141H12 mRNA", "value": 3.75}, {"measurement": "Normalized by Landmarks (0.25)", "setting": "PBX 0143E06 mRNA", "value": 1.60}, {"measurement": "Normalized by all Data Points (0.469)", "setting": "PBX 0143E06 mRNA", "value": 3.01}, {"measurement": "Ratio of Medians (Cy5/Cy3) First Spot", "setting": "PBX 0143E06 mRNA", "value": 6.04}, {"measurement": "Ratio of Medians (Cy5/Cy3) Mean", "setting": "PBX 0143E06 mRNA", "value": "6.41 ± 0.3 ^a"}, {"measurement": "Ratio of Medians (Cy5/Cy3) Second Spot", "setting": "PBX 0143E06 mRNA", "value": 6.78}, {"measurement": "Normalized by Landmarks (0.25)", "setting": "PBX 0143E11 mRNA", "value": 1.41}, {"measurement": "Normalized by all Data Points (0.469)", "setting": "PBX 0143E11 mRNA", "value": 2.64}, {"measurement": "Ratio of Medians (Cy5/Cy3) First Spot", "setting": "PBX 0143E11 mRNA", "value": 4.62}, {"measurement": "Ratio of Medians (Cy5/Cy3) Mean", "setting": "PBX 0143E11 mRNA", "value": "5.64 ± 1.01 ^a"}, {"measurement": "Ratio of Medians (Cy5/Cy3) Second Spot", "setting": "PBX 0143E11 mRNA", "value": 6.65}, {"measurement": "Cy3/Cy5 by Landmarks (0.25)", "setting": "PBX0144A09 mRNA", "value": 4.00}, {"measurement": "Cy3/Cy5 by all Data Points (0.469)", "setting": "PBX0144A09 mRNA", "value": 2.13}, {"measurement": "Normalized by Landmarks (0.25)", "setting": "PBX0144A09 mRNA", "value": 0.250}, {"measurement": "Normalized by all Data Points (0.469)", "setting": "PBX0144A09 mRNA", "value": 0.469}, {"measurement": "Ratio of Medians (Cy5/Cy3) First Spot", "setting": "PBX0144A09 mRNA", "value": 0.83}, {"measurement": "Ratio of Medians (Cy5/Cy3) Mean", "setting": "PBX0144A09 mRNA", "value": "1.00 ± 0.17 ^a"}, {"measurement": "Ratio of Medians (Cy5/Cy3) Second Spot", "setting": "PBX0144A09 mRNA", "value": 1.16}, {"measurement": "Cy3/Cy5 by Landmarks (0.25)", "setting": "PBX0145D04 mRNA", "value": 4.35}, {"measurement": "Cy3/Cy5 by all Data Points (0.469)", "setting": "PBX0145D04 mRNA", "value": 2.32}, {"measurement": "Normalized by Landmarks (0.25)", "setting": "PBX0145D04 mRNA", "value": 0.230}, {"measurement": "Normalized by all Data Points (0.469)", "setting": "PBX0145D04 mRNA", "value": 0.431}, {"measurement": "Ratio of Medians (Cy5/Cy3) First Spot", "setting": "PBX0145D04 mRNA", "value": 0.9}, {"measurement": "Ratio of Medians (Cy5/Cy3) Mean", "setting": "PBX0145D04 mRNA", "value": "0.92 ± 0.02 ^a"}, {"measurement": "Ratio of Medians (Cy5/Cy3) Second Spot", "setting": "PBX0145D04 mRNA", "value": 0.95}, {"measurement": "Cy3/Cy5 by Landmarks (0.25)", "setting": "PBX0145D06 mRNA", "value": 4.03}, {"measurement": "Cy3/Cy5 by all Data Points (0.469)", "setting": "PBX0145D06 mRNA", "value": 2.15}, {"measurement": "Normalized by Landmarks (0.25)", "setting": "PBX0145D06 mRNA", "value": 0.248}, {"measurement": "Normalized by all Data Points (0.469)", "setting": "PBX0145D06 mRNA", "value": 0.464}, {"measurement": "Ratio of Medians (Cy5/Cy3) First Spot", "setting": "PBX0145D06 mRNA", "value": 0.98}, {"measurement": "Ratio of Medians (Cy5/Cy3) Mean", "setting": "PBX0145D06 mRNA", "value": "0.99 ± 0.01 ^a"}, {"measurement": "Ratio of Medians (Cy5/Cy3) Second Spot", "setting": "PBX0145D06 mRNA", "value": 1.00}, {"measurement": "% increase of mRNA expression by Microarray analysis (NF by all data point)", "setting": "gene PBX0135A08", "value": "no change"}, {"measurement": "% increase of mRNA expression by Microarray analysis (NF by all data point)", "setting": "gene PBX013409", "value": "no change"}]}
